Assay results from patent US8057990B2, “Screening method” (Takeda Pharmaceutical Company Limited, priority 2005, dated 2011).

Assays:
[1] = molecular target: rat GPR30 (Rattus norvegicus, UniProt O08878, S320N); settings: rat GPR30 expression CHO cells; tacrine 0.67-67 μM; Fluo 3-AM
Method: The plasmid pAK-rGPR30 was transduced by electroporation into CHO/dhfr^− cells (American Type Culture Collection) in the method described in REFERENCE EXAMPLE 1, and transformed CHO cells expressing rat GPR30 (hereinafter, referred to simply as “rat GPR30 cells”) at a high ratio were selected.
200 μl of each type of cells was planted in each well of a 96-well plate for FLIPR (Black plate clear bottom, Coster) using an 8-channel pipette (3.0×10^4 cells/200 μl/well) and cultured in a 5% CO2 incubator at 37° C. overnight (hereinafter, referred to as the “cell plate”) before use. 20 ml of H/HBSS, 200 μl of 250 mM Probenecid, and 200 μl of fetal bovine serum (FBS) were mixed. 2 vials (50 μg) of Fluo 3-AM (Dojindo Laboratories) were lysed in […] of dimethylsulfoxide and 40 μl of 20% Pluronic acid (Molecular Probes), and the resultant substance was added to H/HBSS-Probenecid-FBS and mixed. […] The cell plate and the sample plate were set in an FLIPR (501 of sample was transferred from the sample plate to the cell plate by the FLIPR), and a change of the fluorescent intensity was measured over-time. Thus, the intracellular calcium ion concentration increase activity was measured.

[2] = molecular target: T1, human GPR30 (Homo sapiens, UniProt Q99527, P21A/Q20H); settings: human GPR30 expression CHO cells; tacrine 0.67-67 μM; Fluo 3-AM
Method: 200 μl of each type of cells was planted in each well of a 96-well plate for FLIPR (Black plate clear bottom, Coster) using an 8-channel pipette (3.0×10^4 cells/200 μl/well) and cultured in a 5% CO2 incubator at 37° C. overnight (hereinafter, referred to as the “cell plate”) before use. 20 ml of H/HBSS, 200 μl of 250 mM Probenecid, and 200 μl of fetal bovine serum (FBS) were mixed. 2 vials (50 μg) of Fluo 3-AM (Dojindo Laboratories) were lysed in […] of dimethylsulfoxide and 40 μl of 20% Pluronic acid (Molecular Probes), and the resultant substance was added to H/HBSS-Probenecid-FBS and mixed. Then, the resultant mixture was divided into units of 100 μl and put to each well of the cell plate deprived of the culture fluid using an 8-channel pipette, and incubated in a 5% CO2 incubator at 37° C. for 1 hour (colorant loading). 8 μl of a tacrine solution (Aldrich Chemical Company) of various concentrations was added to 259 μl of H/HBSS containing 2.5 mM Probenecid, 0.1% CHAPS and 0.1% BSA, and diluted. […] The cell plate and the sample plate were set in an FLIPR (501 of sample was transferred from the sample plate to the cell plate by the FLIPR), and a change of the fluorescent intensity was measured over-time. Thus, the intracellular calcium ion concentration increase activity was measured.

[3] = test system: HeLa cells not expressing human GPR30; settings: pAKKO-1.11H-transfected control HeLa cells; tacrine 100 μM; 4 hours
Method: (§1) Separately, a reporter plasmid of pSRE-Luc (Invitrogen) ligated with a luciferase gene as a reporter at a downstream position of a serum response element (SRE), and expression vector plasmids for human GαoA, human Gβ1 and human Gγ2, which are each a kind of G proteins, were prepared in substantially the same manner. HeLa cells were used as host cells for transfecting the G protein-coupled receptor protein expression plasmid pAK-hGPR30 and the reporter plasmids. The cells were planted on a 384-well assay plate (COSTAR 3704) at a ratio of 4000 cells/well in a culture volume of 25 μl, and incubated overnight. As the medium, DMEM (Invitrogen) supplemented with 10% fetal bovine serum and 1% MEM non-essential amino acids solution (DMEM/NEAA) was used. Each plasmid was diluted to a concentration of 240 ng/μl. Plasmids were added to 250 μl of Opti-MEM-I (Invitrogen) at a ratio of 1 μl of pAK-hGPR30, 9 μl of the reporter plasmid, and 1 μl of each of the G protein expression plasmids for GαoA, Gβ1 and Gγ2. […] After the cells were lysed and thoroughly mixed with the substrate, the chemiluminescence level corresponding to the expression induction level of the reporter gene in each well was measured on a plate reader (EnVision™, Perkin Elmer).

[4] = molecular target: T1, human GPR30; settings: GPR30 expression HeLa cells; tacrine 100 μM; 4 hours
Method: as §1

T1 sequence (Q99527 whole entry Q20H/P21A): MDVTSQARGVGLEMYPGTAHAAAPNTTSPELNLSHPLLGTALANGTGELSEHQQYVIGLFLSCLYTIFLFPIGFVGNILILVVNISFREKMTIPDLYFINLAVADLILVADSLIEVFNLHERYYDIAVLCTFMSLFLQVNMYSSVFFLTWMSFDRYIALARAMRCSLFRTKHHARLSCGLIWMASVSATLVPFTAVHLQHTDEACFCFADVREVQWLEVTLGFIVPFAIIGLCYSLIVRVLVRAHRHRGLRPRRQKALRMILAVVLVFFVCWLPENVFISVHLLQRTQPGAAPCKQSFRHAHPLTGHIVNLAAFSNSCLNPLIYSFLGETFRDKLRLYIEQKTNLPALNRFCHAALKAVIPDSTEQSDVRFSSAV
rat GPR30, sequence (O08878 whole entry S320N): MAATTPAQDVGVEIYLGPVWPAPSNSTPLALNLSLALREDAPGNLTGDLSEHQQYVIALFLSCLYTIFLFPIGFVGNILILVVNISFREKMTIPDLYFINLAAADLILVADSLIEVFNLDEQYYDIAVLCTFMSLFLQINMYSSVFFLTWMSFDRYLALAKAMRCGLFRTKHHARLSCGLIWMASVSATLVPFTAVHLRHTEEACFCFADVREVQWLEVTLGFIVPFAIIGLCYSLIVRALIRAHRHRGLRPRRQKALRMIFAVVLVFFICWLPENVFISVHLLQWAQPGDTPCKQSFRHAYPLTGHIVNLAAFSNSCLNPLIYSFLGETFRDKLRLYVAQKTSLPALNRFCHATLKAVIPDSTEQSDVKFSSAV

luciferase activity (pSRE-Luc reporter) [4]: significant increase
SMILES: Nc1c2c(nc3ccccc13)CCCC2 [tacrine, 1,2,3,4-tetrahydro-9-acridinamine]
intracellular calcium ion concentration (change of fluorescent intensity, FLIPR) [1]: increased in a concentration-depending manner
intracellular calcium ion concentration (change of fluorescent intensity, FLIPR) [2]: increased in a concentration-depending manner
luciferase activity (pSRE-Luc reporter) [3]: no significant activity increase
